The record followed here is patent publication US4649136A, “Cephem compounds” (Fujisawa Pharmaceutical Co., Ltd., priority 1981, dated 1987).

One data set can be described thus: in vivo. The settings on record: rat, po, 100 mg/kg.
For the next data set, the system named is Proteus mirabilis 18. In words: In vitro antibacterial activity, two-fold agar-plate dilution method (MIC). To be noted: HI-agar, 10^8 viable cells per ml, 37° C., 20 hours. It counts as cell-based. On the procedure: (§1) In vitro antibacterial activity was determined by the two-fold agar-plate dilution method as described below. One loopful of an overnight culture of each test strain in Trypticase-soy broth (10^8 viable cells per ml) was streaked on heart infusion agar (HI-agar) containing graded concentrations of representative test compound, and the minimal inhibitory concentration (MIC) was expressed in terms of μg/ml after incubation at 37° C. for 20 hours.

In the next data set the test system is Klebsiella pneumoniae 7. Described as above. It is filed as cell-based. The settings on record: HI-agar, 10^8 viable cells per ml, 37° C., 20 hours. The protocol: as §1
Another data set in a line: Urinary excretion. To be noted: rat; rats; oral administration of 100 mg/kg; urine 0 to 6 and 6 to 24 hours; bioassay; read-out: Urinary recovery in 24 hours (%). It is filed as in vivo.

≈ marks a conversion by molar mass, not a printed value.

Method for Urinary excretion: Urine of rats was collected with a urine collector at 0 to 6, and 6 to 24 hours after oral administration of 100 mg/kg of the test antibiotic. The antibiotic levels in the urine samples were bioassayed with the standard solution prepared with M/15 phosphate buffer (pH 7.0) and the urinary recovery in 24 hours was calculated.
Method for in vivo: Rats anesthetized with pentobarbital were fixed in supine position, and a polyethylene cannula was inserted into the bile duct. Bile samples were collected at 0 to 3, 3 to 6, and 6 to 24 hours after oral administration of 100 mg/kg of the test antibiotic. The antibiotic levels in the bile samples were bioassayed with the standard solution prepared with M/15 phosphate buffer (pH 7.0) and the biliary recovery in 24 hours were calculated.

Regarding `O=C(O)CO/N=C(\C(=O)NC1C(=O)N2C(C(=O)O)=CCSC12)c1cscn1` (stereo not drawn) [Compound .circle.A, 7-[2-Carboxymethoxyimino-2-(4-thiazolyl)acetamido]-3-cephem-4-carboxylic acid (syn isomer)], the dose excreted at 24 h was determined as 7.9% in “in vivo” and 43.5% in the data set “Urinary excretion”. The MIC in the data set with Proteus mirabilis 18 and against Klebsiella pneumoniae 7 was 0.05 µg/mL (≈ 0.121 µM) each time.

A word on the MIC: it is the lowest concentration found to suppress growth.
